Results from patent US10676430B2, “Non-alpha substituted peroxy acids and uses thereof” (Stepan Company, priority 2016, dated 2020).

How the values were obtained:
[1] = system: Staphylococcus aureus (Sa, ATCC 6538); assay: Method A+: modified quantitative AOAC Use Dilution test; format: cell-based; details: 750 ppm, 1 minute, 400 ppm hard water, 5% organic matter
Protocol: (§1) In this Example, 3-HPPA was evaluated for biocidal efficacy against Sa, Pa, and Ec using three different test methods. PAA was also evaluated for biocidal efficacy for comparison. The test methods were performed using 400 ppm of hard water as diluent, in the presence of 5% organic matter.
(§2) Method A^+: modified quantitative AOAC Use Dilution test for Disinfectants (Official Methods of Analysis. Methods 955.15—Staphylococcus aureus. Method 964.02—Pseudomonas aeruginosa. Posted September 2013). The number of surviving organisms on each carrier was quantitatively determined after the indicated contact time. No growth observed on the solid recovery medium means no survivors present on the carriers after exposure to the antimicrobial composition. A kill rate of 99.9999% is equivalent to a 6 log kill.

[2] = system: Pseudomonas aeruginosa (Pa, ATCC 15442); assay: as above; format: cell-based; details: 750 ppm, 1 minute, 400 ppm hard water, 5% organic matter
Protocol: as §1, §2

[3] = Peracid stability by standard titration method; format: physicochemical
Description: […] The H2O2 used is commercially available from Arkema under the tradename Perxoal 50EG and includes a small amount of stabilizer. The reaction proceeded until equilibrium was reached, in accordance with the reaction scheme recited above. The starting carboxylic acids were acetic acid, 3-hydroxy propanoic acid, 3-chloro-propanoic acid, 2-hydroxy-acetic acid (glycolic acid), 2-hydroxy-propanoic acid (lactic acid) and 2-oxo-propanoic acid. The 3-hydroxy propanoic acid and 3-chloro-propanoic acid generated non alpha-substituted peracids that are examples of the present technology. The other starting carboxylic acids generated peracids that are not within Formula 1 or Formula 2 and are comparative peracid examples.
Each of the resulting peracids were evaluated for odor. In addition, the resulting peracids were evaluated for stability using a standard titration method known to those skilled in the art.

[4] = system: Pseudomonas aeruginosa (Pa, ATCC 15442); assay: Method A: AOAC Use Dilution test for Disinfectants (Method 964.02); format: cell-based; details: 1 minute
Protocol: as §1
(§3) Method A: AOAC Use Dilution test for Disinfectants (Official Methods of Analysis. Methods 955.15—Staphylococcus aureus. Method 964.02—Pseudomonas aeruginosa. Posted September 2013). Killing efficacy is a qualitative result, reported as number of tubes showing microbial growth and total number carriers tested.

[5] = system: Spores of Clostridium difficile (ATCC 43598); assay: Quantitative Disk Carrier Test Method (QCT-2), EPA MB-31-03, sporicidal efficacy; format: cell-based; details: water hardness 400 ppm
Protocol: Different formulations containing 3-HPPA at different concentrations were prepared and evaluated for sporicidal efficacy against Cd. The 3-HPPA formulations were also compared to the sporicidal efficacy of different formulations containing peracetic acid (PAA). The test procedure for evaluating sporicidal efficacy was in accordance with the EPA test method in place in 2015: Quantitative Disk Carrier Test Method (QCT-2) Modified for Testing Antimicrobial Products Against Spores of Clostridium difficile (ATCC 43598) on Inanimate, Hard, Non-porous Surfaces (MB-31-03). This method mandates the presence of a high level of organic soil.

[6] = system: Staphylococcus aureus (Sa, ATCC 6538); assay: Method A: AOAC Use Dilution test for Disinfectants (Method 955.15); format: cell-based; details: 1 minute
Protocol: as §1, §3

[7] = reaction mixture 20.00% organic acid, 7.50% H2O2, 1.00% H2SO4, DI water
[8] = 750 ppm, 400 ppm hard water, 5% organic matter

## CC(=O)OO [PAA, peracetic acid]
[1]
  Efficacy (Method A+), kill rate: >99.9999%
[2]
  Efficacy (Method A+), kill rate: >99.9999%
[3]; 0% H2SO4 (no acid catalyst), 17.00-20.00% organic acid, 7.8-8.5% H2O2
  Peracid at day 13: 1.44%
[3]; 1.00% H2SO4, between day 6 and day 13
  Peracid loss/day: 0.131%
[3]; [7]
  Peracid at day 6: 2.290%
  Peracid at day 13: 2.270%
[4]; 750 ppm active
  Efficacy outcome, EPA UDT/MB-05-13 test method: efficacious
[4]; [8]
  Efficacy (Method A): tubes showing microbial growth / total carriers tested: 0/20
[5]; peracid active 1844 ppm, contact time 2 minute
  Log10 reduction: 4.76
[5]; peracid active 2500 ppm, contact time 4 minute
  Log10 reduction: 4.37
[5]; peracid active 2500 ppm, contact time 4 minute, listed as PAA alone
  Log10 reduction: <4.37
[5]; peracid active 5000 ppm, contact time 4 minute
  Log10 reduction: 6.39
[6]; 750 ppm active
  Efficacy outcome, EPA UDT/MB-05-13 test method: efficacious
[6]; [8]
  Efficacy (Method A): tubes showing microbial growth / total carriers tested: 0/20
